Test results taken from patent US20030083202A1, “Roots-inducing agent of plants and its treatment method” (priority 2001, published 2003).

What was measured:
[1] = tested on: cut stems of chrysanthemums; test: Roots-inducing and fixation-stimulating actions in cut stems of chrysanthemums (leaf spray); format: in vivo; design: Index for roots-induction, Total indexes: scale not given here; settings: 50th day; for Index for roots-induction, cutting 1 / Index for roots-induction, cutting 2 / Index for roots-induction, cutting 3 / Index for roots-induction, cutting 4 / Index for roots-induction, cutting 5 / Index for roots-induction, cutting 6 / Index for roots-induction, cutting 7 / Index for roots-induction, cutting 8: 5 ppm water solution sprayed once onto leaves, 8 cuttings; for Index for roots-induction, Total indexes: sum of the indexes of 8 cuttings, 5 ppm spray, non-treatment 7
Description: Stems of chrysanthemums were cut out by 5 cm from the part at 5-10 cm from the top to prepare cuttings with 2 leaves. The water solution of the tested compound (5 ppm) was sprayed once in a misty manner through an mascot spray onto the surface of leaves so that the surface got wet uniformly for each 8 cuttings. The cuttings in the pots were grew in a cabinet where the temperature was controlled in the range of 15 (C at lowest at night to 30 (C at highest in the daytime. Water was supplied appropriately according to the extent of dryness of soil during the cultivation of plants.
On the 50th day after the tested compound was sprayed, roots-induction of each cutting was checked by diggings up, and its extent was shown as an index for each rank.

[2] = tested on: cuttings of violets without roots; test: Roots-inducing and fixation-stimulating actions in cuttings of violets (leaf spray); format: in vivo
Experimental: Seedlings of violets were used in the experiment. The lower part of the seedlings of violets was cut and cuttings of violets without roots were prepared. Each cutting of violets was planted into cultivation soil in a plug tray and supplied water sufficiently.
The plug trays were lined up on the working stand in a green house where the temperature was controlled at 25-33 (C. The water solution of 4-chloroindole-3-acetic acid (20 ppm) was sprayed in a misty manner through an atomizer onto the surface of leaves so that the surface got wet uniformly (once).
Then, the plants were grew for 38 days with 1-2 times water supply every other day, and numbers of the cuttings with and without roots-induction and of the dead cuttings. In the control, the cuttings were sprayed only water instead of 4-chloroindole-3-acetic acid solution and grew under the same conditions as those described above.

[3] = 20 ppm water solution sprayed once onto leaves, after 38 days, of 93 cuttings

Row | Compound | Index for roots-induction, cutting 1 [1] | Index for roots-induction, cutting 2 [1] | Index for roots-induction, cutting 3 [1] | Index for roots-induction, cutting 4 [1] | Index for roots-induction, cutting 5 [1] | Index for roots-induction, cutting 6 [1] | Index for roots-induction, cutting 7 [1] | Index for roots-induction, cutting 8 [1] | Index for roots-induction, Total indexes [1] | Roots-inducing and fixation-stimulating actions (in words) ([2]; 20 ppm spray, versus water control) | Time at which roots-induction was observed ([2]; 20 ppm spray, roots checked by digging up at random, no statistical analysis, control only after 7 days) | Cuttings with roots-induction (number of cuttings) [2, 3] | Cuttings without roots-induction (%) [2, 3] | Cuttings without roots-induction (number of cuttings) [2, 3] | Dead cuttings (%) [2, 3] | Dead cuttings (number of cuttings) [2, 3] | Cuttings with roots-induction (%) ([2]; 20 ppm water solution sprayed once onto leaves, after 38 days, of 93 cuttings, listed as 4-Cl-iAA) | Cuttings with roots-induction (%) ([2]; 20 ppm water solution sprayed once onto leaves, after 38 days, of 93 cuttings, listed as 4-chloroindole-3-acetic acid)
1 | CCC(C)OC(=O)Cc1c[nH]c2cccc(Cl)c12 (racemic) [4-Cl-IAA 2-Bu] | 2 (The cuttings with 10-19 roots per a cutting) | 2 (The cuttings with 10-19 roots per a cutting) | 2 (The cuttings with 10-19 roots per a cutting) | 2 (The cuttings with 10-19 roots per a cutting) | 1 (The cuttings with 5-9 roots per a cutting) | 1 (The cuttings with 5-9 roots per a cutting) | 0 (The cuttings with less than 4 roots (including no roots)) | 0 (The cuttings with less than 4 roots (including no roots)) | 10 |  |  |  |  |  |  |  |  | 
2 | CCCCOC(=O)Cc1c[nH]c2cccc(Cl)c12 [4-Cl-IAA 1-Bu] | 2 (The cuttings with 10-19 roots per a cutting) | 2 (The cuttings with 10-19 roots per a cutting) | 2 (The cuttings with 10-19 roots per a cutting) | 2 (The cuttings with 10-19 roots per a cutting) | 1 (The cuttings with 5-9 roots per a cutting) | 1 (The cuttings with 5-9 roots per a cutting) | 0 (The cuttings with less than 4 roots (including no roots)) | 0 (The cuttings with less than 4 roots (including no roots)) | 10 |  |  |  |  |  |  |  |  | 
3 | CC(C)OC(=O)Cc1c[nH]c2cccc(Cl)c12 [4-Cl-IAA 2-Pr] | 2 (The cuttings with 10-19 roots per a cutting) | 2 (The cuttings with 10-19 roots per a cutting) | 2 (The cuttings with 10-19 roots per a cutting) | 2 (The cuttings with 10-19 roots per a cutting) | 2 (The cuttings with 10-19 roots per a cutting) | 1 (The cuttings with 5-9 roots per a cutting) | 0 (The cuttings with less than 4 roots (including no roots)) | 0 (The cuttings with less than 4 roots (including no roots)) | 11 |  |  |  |  |  |  |  |  | 
4 | C=CCOC(=O)Cc1c[nH]c2cccc(Cl)c12 [4-Cl-IAA Ally] | 3 (The cuttings with 20 or more roots per a cutting) | 3 (The cuttings with 20 or more roots per a cutting) | 2 (The cuttings with 10-19 roots per a cutting) | 2 (The cuttings with 10-19 roots per a cutting) | 2 (The cuttings with 10-19 roots per a cutting) | 1 (The cuttings with 5-9 roots per a cutting) | 1 (The cuttings with 5-9 roots per a cutting) | 0 (The cuttings with less than 4 roots (including no roots)) | 14 |  |  |  |  |  |  |  |  | 
5 | CCOC(=O)Cc1c[nH]c2cccc(Cl)c12 [4-Cl-IAA Et] | 3 (The cuttings with 20 or more roots per a cutting) | 3 (The cuttings with 20 or more roots per a cutting) | 3 (The cuttings with 20 or more roots per a cutting) | 3 (The cuttings with 20 or more roots per a cutting) | 3 (The cuttings with 20 or more roots per a cutting) | 2 (The cuttings with 10-19 roots per a cutting) | 1 (The cuttings with 5-9 roots per a cutting) | 0 (The cuttings with less than 4 roots (including no roots)) | 18 |  |  |  |  |  |  |  |  | 
6 | CCCOC(=O)Cc1c[nH]c2cccc(Cl)c12 [4-Cl-IAA I-Pr] | 3 (The cuttings with 20 or more roots per a cutting) | 3 (The cuttings with 20 or more roots per a cutting) | 2 (The cuttings with 10-19 roots per a cutting) | 2 (The cuttings with 10-19 roots per a cutting) | 2 (The cuttings with 10-19 roots per a cutting) | 2 (The cuttings with 10-19 roots per a cutting) | 1 (The cuttings with 5-9 roots per a cutting) | 1 (The cuttings with 5-9 roots per a cutting) | 16 |  |  |  |  |  |  |  |  | 
7 | COC(=O)Cc1c[nH]c2cccc(Cl)c12 [4-Cl-IAA Me] | 3 (The cuttings with 20 or more roots per a cutting) | 3 (The cuttings with 20 or more roots per a cutting) | 3 (The cuttings with 20 or more roots per a cutting) | 2 (The cuttings with 10-19 roots per a cutting) | 2 (The cuttings with 10-19 roots per a cutting) | 2 (The cuttings with 10-19 roots per a cutting) | 0 (The cuttings with less than 4 roots (including no roots)) | 0 (The cuttings with less than 4 roots (including no roots)) | 15 |  |  |  |  |  |  |  |  | 
8 | CC(C)COC(=O)Cc1c[nH]c2cccc(Cl)c12 [4-Cl-IAA isoBu] | 2 (The cuttings with 10-19 roots per a cutting) | 2 (The cuttings with 10-19 roots per a cutting) | 2 (The cuttings with 10-19 roots per a cutting) | 1 (The cuttings with 5-9 roots per a cutting) | 1 (The cuttings with 5-9 roots per a cutting) | 0 (The cuttings with less than 4 roots (including no roots)) | 0 (The cuttings with less than 4 roots (including no roots)) | 0 (The cuttings with less than 4 roots (including no roots)) | 8 |  |  |  |  |  |  |  |  | 
9 | CCCCCOC(=O)Cc1c[nH]c2cccc(Cl)c12 [4-Cl-IAA pentyl] | 2 (The cuttings with 10-19 roots per a cutting) | 2 (The cuttings with 10-19 roots per a cutting) | 2 (The cuttings with 10-19 roots per a cutting) | 2 (The cuttings with 10-19 roots per a cutting) | 1 (The cuttings with 5-9 roots per a cutting) | 1 (The cuttings with 5-9 roots per a cutting) | 0 (The cuttings with less than 4 roots (including no roots)) | 0 (The cuttings with less than 4 roots (including no roots)) | 10 |  |  |  |  |  |  |  |  | 
10 | O=C(O)Cc1c[nH]c2cccc(Cl)c12 [4-Cl-IAA, 4-chloroindole-3-acetic acid] | 3 (The cuttings with 20 or more roots per a cutting) | 2 (The cuttings with 10-19 roots per a cutting) | 2 (The cuttings with 10-19 roots per a cutting) | 2 (The cuttings with 10-19 roots per a cutting) | 2 (The cuttings with 10-19 roots per a cutting) | 2 (The cuttings with 10-19 roots per a cutting) | 0 (The cuttings with less than 4 roots (including no roots)) | 0 (The cuttings with less than 4 roots (including no roots)) | 13 | extremely prominent | around 3 days | 74 | (6) % | 6 | (14) % | 13 | (80) % | 80
